Data as given in US8436013B2, “Compounds and methods for treatment of alpha-1 antitrypsin deficiency” (University of Florida Research Foundation, Inc., priority 2007, dated 2013).
Entries after “also recorded” stand apart in the source; their conditions may differ.

What was measured:
ATZ [1] = target: T1, ATZ (Homo sapiens, UniProt P01009, E366K); assay: Pulse-chase (35S labelling, anti-AAT immunoprecipitation) ATZ secretion in CHO cells; assay type: cell-based; conditions: CHO cells labeled with 35S, vs DMSO control
T1 construct: expressed in transfected cells; host or cells: CHO-ATZ cells
Description: FIG. 5. Polymer inhibitor (1,9-decadiene) increases ATZ secretion. The cells were labeled with ^35S and harvested at the indicated time points. The protein extracts were immunoprecipitated using anti-AAT antibody. The immunocomplexes were then resolved in PAGE gel. The intensity of AAT bands were then quantified and calculated. FIG. 5A is the cells treated with DMSO control; FIG. 5B represents result of cells with polymer inhibitor treatment. […] A non-denaturing gel was used to analyze cell extracts from compound-treated CHO ATZ cells.

AAT-Z transgenic mice = assay: Liver histology (PASD staining, inflammation) in AAT-Z transgenic mice; assay type: in vivo; conditions: i.p. injection for 7 days, vs control
Protocol: FIG. 7. Compounds according to the invention decrease AAT accumulation and reduce inflammation in liver cells compared to control. AAT-Z transgenic mice were treated by i.p. injection of a compound or control for 7 days, followed by collection of liver tissue.
Compounds according to the invention decrease AAT accumulation and reduce inflammation in liver cells compared to control. AAT-Z transgenic mice were treated by i.p. injection of a compound or control for 7 days, followed by collection of liver tissue.

[2] = system: transgenic mice carrying a human ATZ transgene; assay: Serum AAT level (ELISA) in transgenic mice carrying a human ATZ transgene; assay type: in vivo; conditions: treated for two weeks
Protocol: FIG. 6. Compounds according to the invention can increase AAT secretion in transgenic animals. The animals were treated for two weeks. Serum AAT levels were determined by ELISA assay.
Two test compounds were administered to transgenic mice (four animals per group, including control) carrying a human ATZ transgene to determine whether the compounds are capable of increasing AAT secretion in a transgenic animal model. The animals were treated for two weeks. Serum AAT levels were determined by ELISA assay.

ATZ [3] = target: T1, ATZ; assay: ATZ secretion from CHO-ATZ cells, ELISA of culture supernatant; assay type: cell-based; conditions: various concentrations, supernatants at 24, 48 and 72 hours, DMSO controls
Protocol: FIG. 3. Effects of small molecule compounds on AAT secretion in cells. The CHO-ATZ cells were treated with various concentrations of NCI compounds. The culture supernatants were harvested for ELISA analysis. The data represent the means from 4-separate experiments.
Compounds listed in Table 1 were obtained from NCI/DTP. The compounds were dissolved in DMSO. As the first step, the compounds were tested in CHO-ATZ cells. Various concentrations of the compounds were added to the cells. The supernatants were harvested at time points: 24, 48, and 72 hours. The samples were then used for ELISA assay for human AAT.
(§1) Compounds were used to treat CHO-ATZ cells at various concentrations. Cell supernatant was harvested at different time points. ELISA test was performed to determine the level of ATZ in the supernatant. The cells were also harvested for Western blot analysis.

ATZ [4] = target: T1, ATZ; assay: ATZ accumulation in treated cells, Western blot; assay type: cell-based; conditions: cells treated with polymer inhibitor vs controls
Protocol: FIG. 4. Polymer inhibitor (1,9-decadiene) reduces the ATZ accumulation in cells. Cells were treated with polymer inhibitor and harvested for Western blot analysis.
as §1
We then examined these two potentially effective inhibitors. The cells were treated by the inhibitors, followed by protein extraction and Western blot analysis.

[5] = system: human ATZ transgenic model; conditions: cited from earlier work

T1 sequence (P01009 25-418 E366K): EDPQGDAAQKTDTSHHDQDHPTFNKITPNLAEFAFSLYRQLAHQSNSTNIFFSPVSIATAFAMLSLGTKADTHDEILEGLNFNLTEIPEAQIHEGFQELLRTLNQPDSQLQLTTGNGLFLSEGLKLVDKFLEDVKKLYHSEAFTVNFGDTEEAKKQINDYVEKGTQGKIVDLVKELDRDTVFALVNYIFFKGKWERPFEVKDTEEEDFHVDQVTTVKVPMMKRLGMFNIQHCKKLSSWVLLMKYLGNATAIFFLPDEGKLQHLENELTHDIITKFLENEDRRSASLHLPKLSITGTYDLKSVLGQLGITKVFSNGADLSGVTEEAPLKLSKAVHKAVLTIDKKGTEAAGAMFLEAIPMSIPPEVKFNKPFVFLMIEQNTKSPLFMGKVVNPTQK

SMILES: C=CCCCCCCC=C [1,9-decadiene]
- ATZ secretion (pulse-chase) (ATZ [1]): increases the ATZ secretion in the supernatant
- AAT accumulation in hepatocytes (PASD staining) (AAT-Z transgenic mice): decrease AAT accumulation in hepatocytes
- liver tissue inflammation (AAT-Z transgenic mice): reduced live tissue inflammation
- AAT serum level enhancement [2]: more than two-fold
- ATZ secretion (ELISA of supernatant) (ATZ [3]): effectively enhance ATZ secretion in the cells
- ATZ secretion (ELISA of supernatant) (ATZ [3]; listed as NSC 102789): appear to be effective for inhibition of ATZ secretion
- ATZ accumulation in cells (Western blot) (ATZ [4]): reduced amount of ATZ; also recorded: effectively reduce the accumulation of ATZ in cells

SMILES: O=C(O)/C=C/c1cc2c(cc1[N+](=O)[O-])OCO2 [3,4-methylenedioxy-6-nitrocinnamic acid]
- AAT accumulation in hepatocytes (PASD staining) (AAT-Z transgenic mice): decrease AAT accumulation in hepatocytes
- liver tissue inflammation (AAT-Z transgenic mice): reduced live tissue inflammation
- AAT serum level enhancement [2]: more than two-fold
- ATZ secretion (ELISA of supernatant) (ATZ [3]): effectively enhance ATZ secretion in the cells
- ATZ secretion (ELISA of supernatant) (ATZ [3]; listed as NSC 21034): appear to be effective for inhibition of ATZ secretion

SMILES: O=C(O)CCCc1ccccc1 [4-phenylbutyric acid]
- blood levels of AAT [5]: can increase blood levels of AAT
